Among the data in patent publication US20240124432A1, “HERBICIDAL COMPOUNDS” (SYNGENTA CROP PROTECTION AG, priority 2020, published 2024) are pest or weed control values, retold here.

Assay type in all cases: in vivo
Test [1] concerns LOLPE. The experiment in a line: Post-emergence biological efficacy. Conditions: Lolium perenne, 312 h, evaluated after 13 days, read-out: damage to plant (100=total damage to plant; 0=no damage to plant). In outline: (§1)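 Pot-grown plants were raised 14 days in a glasshouse (24/19 °C day/night, 16 h light), then sprayed post-emergence with an aqueous dilution of a 50 g/l IF50 formulation stock in 0.2% Genapol XO80. They were kept at 24/18 °C, 15 h light, 50% humidity, and visually scored for damage after 13 days (0 = none, 100 = total).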

For test [2], the system named is DIGSA. The experiment in a line: Post-emergence biological efficacy. The following applies: Digitaria sanguinalis, 312 h, evaluated after 13 days, read-out: damage to plant (100=total damage to plant; 0=no damage to plant). In outline: as §1
Test [3] concerns CHEAL. In words: Post-emergence biological efficacy. The following applies: Chenopodium album, 312 h, evaluated after 13 days, read-out: damage to plant (100=total damage to plant; 0=no damage to plant). In outline:
as §1

Test [4] concerns SETFA. In words: Post-emergence biological efficacy. The following applies: Setaria faberi, 312 h, evaluated after 13 days, read-out: damage to plant (100=total damage to plant; 0=no damage to plant). In outline: as §1
For test [5], the system named is EPHHL. The experiment in a line: Post-emergence biological efficacy. The following applies: Euphorbia heterophylla, 312 h, evaluated after 13 days, read-out: damage to plant (100=total damage to plant; 0=no damage to plant). In outline: as §1
Test [6] concerns AMAPA. The experiment in a line: Post-emergence biological efficacy. The following applies: Amaranthus palmeri, 312 h, evaluated after 13 days, read-out: damage to plant (100=total damage to plant; 0=no damage to plant). Put shortly:
as §1

Test [7] has as its system ECHCG. In words: Post-emergence biological efficacy. The following applies: Echinochloa crus-galli, 312 h, evaluated after 13 days, read-out: damage to plant (100=total damage to plant; 0=no damage to plant). In outline:
as §1

Test [8] has as its system ELEIN. In words: Post-emergence biological efficacy. Conditions: 312 h, evaluated after 13 days, read-out: damage to plant (100=total damage to plant; 0=no damage to plant). In outline:
as §1

In test [9] the test system is IPOHE. In words: Post-emergence biological efficacy. The following applies: Ipomoea hederacea, 312 h, evaluated after 13 days, read-out: damage to plant (100=total damage to plant; 0=no damage to plant). Put shortly:
as §1

For test [10], the system named is LOLPE. In words: Pre-emergence biological efficacy. Conditions: Lolium perenne, 312 h, evaluated after 13 days, read-out: damage to plant (100=total damage to plant; 0=no damage to plant). Put shortly:
(§2)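 Injury rating (0 = no damage, 100 = plant killed) taken 13 days after a single spray of compound at the chosen dose onto freshly sown pots held 1 day in the glasshouse beforehand.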

For test [11], the system named is SETFA. The experiment in a line: Pre-emergence biological efficacy. The following applies: Setaria faberi, 312 h, evaluated after 13 days, read-out: damage to plant (100=total damage to plant; 0=no damage to plant). Put shortly:
as §2

Test [12] deals with EPHHL. In words: Pre-emergence biological efficacy. Conditions: Euphorbia heterophylla, 312 h, evaluated after 13 days, read-out: damage to plant (100=total damage to plant; 0=no damage to plant). In outline: as §2
Test [13] has as its system AMAPA. The experiment in a line: Pre-emergence biological efficacy. The following applies: Amaranthus palmeri, 312 h, evaluated after 13 days, read-out: damage to plant (100=total damage to plant; 0=no damage to plant). In outline:
as §2

Test [14] relates to ECHCG. The experiment in a line: Pre-emergence biological efficacy. The following applies: Echinochloa crus-galli, 312 h, evaluated after 13 days, read-out: damage to plant (100=total damage to plant; 0=no damage to plant). In outline: as §2
In test [15] the test system is IPOHE. The experiment in a line: Pre-emergence biological efficacy. The following applies: Ipomoea hederacea, 312 h, evaluated after 13 days, read-out: damage to plant (100=total damage to plant; 0=no damage to plant). Put shortly:
as §2

Take `CCOC(=O)C1(C)CC(c2cc(-c3ccc(C)nc3)c(F)cc2Cl)=NO1` (stereo not drawn) [Compound 1-283, Ethyl 3-[2-chloro-4-fluoro-5-(6-methyl-3-pyridyl)phenyl]-5-methyl-4H-isoxazole-5-carboxylate]: the pest or weed control at 250 g/ha in [1] came to 0%; in test [2], 20%; in test [3], 30%; in test [4], 20%; in test [5], 60%; in test [6], 70%. For the same compound, the pest or weed control at 250 g/ha stood at 10% in [7]; 0% in test [8]; 40% in [9]; 0% in [10]; 0% in test [11]; 20% in test [12]. Also, the pest or weed control at 250 g/ha in test [13], in test [14] and in [15] was 0% each time.

On to `CCOC(=O)C1(C)CC(c2cc(-c3cnc(F)c(Cl)c3)c(F)cc2Cl)=NO1` (stereo not drawn) [Compound 1-403, Ethyl 3-[2-chloro-5-(5-chloro-6-fluoro-3-pyridyl)-4-fluoro-phenyl]-5-methyl-4H-isoxazole-5-carboxylate], for which the pest or weed control at 250 g/ha came out at 20% in [1]; 70% in [2]; 70% in [3]; 40% in test [4]; 70% in test [5]; 70% in test [6]. For the same compound, the pest or weed control at 250 g/ha in test [7] is 40%; in test [8], 60%; in [9], 50%; in test [10], 20%; in test [11], 0%; in test [12], 20%. Moreover, the pest or weed control at 250 g/ha in test [13] turned out to be 30%; in test [14], 40%; in test [15] it was 10%.

As to `CCOC(=O)C1(C)CC(c2cc(-c3cncc(OC)c3)c(F)cc2Cl)=NO1` (stereo not drawn) [Compound 1-379, Ethyl 3-[2-chloro-4-fluoro-5-(5-methoxy-3-pyridyl)-phenyl]-5-methyl-4H-isoxazole-5-carboxylate], the pest or weed control at 250 g/ha in [1] was determined as 10%; in [2] it was 60%; in [3] it was 50%; in test [4], 40%; in test [5], 50%; in [6], 100%. Besides, the pest or weed control at 250 g/ha came out at 40% in [7]; 40% in test [8]; 80% in [9]; 0% in test [10]; 0% in test [11]; 0% in test [12]. Moreover, the pest or weed control at 250 g/ha in [13], in test [14] and in test [15] was 0% each time.

On to `CCOC(=O)C1(C)CC(c2cc(-c3ncc(C)cc3Cl)c(F)cc2Cl)=NO1` (stereo not drawn) [Compound 1-175, Ethyl 3-[2-chloro-5-(3-chloro-5-methyl-2-pyridyl)-4-fluoro-phenyl]-5-methyl-4H-isoxazole-5-carboxylate], for which the pest or weed control at 250 g/ha in test [1] stood at 90%; in test [2] it was 70%; in test [3] it was 100%; in test [4], 100%; in test [5] it was 100%; in test [6], 100%. For the same compound, the pest or weed control at 250 g/ha in test [7] came out at 100%; in [8] it was 70%; in [9], 100%; in test [10], 20%; in [11], 80%; in test [12] it was 60%. Besides, the pest or weed control at 250 g/ha in [13] came to 30%; in test [14] it was 60%; in test [15], 50%.

As to `CCOC(=O)C1(C)CC(c2cc(-c3ncc(C(F)(F)F)cc3Cl)ccc2Cl)=NO1` (stereo not drawn) [Compound 1-99, Ethyl 3-[2-chloro-5-[3-chloro-5-(trifluoromethyl)-2-pyridyl]-phenyl]-5-methyl-4H-isoxazole-5-carboxylate], the pest or weed control at 250 g/ha in test [1], in [2], in test [3], in [4], in test [5] and in test [6] was 100% in each case. In addition, the pest or weed control at 250 g/ha in test [7] was found to be 100%; in test [8], 100%; in [9], 100%; in test [10] it was 80%; in test [11] it was 100%; in test [12], 100%. Moreover, the pest or weed control at 250 g/ha in [13], in test [14] and in test [15] was 100% throughout.

On to `CCOC(=O)C1(C)CC(c2cc(-c3ncc(Cl)cc3Cl)c(F)cc2Cl)=NO1` (stereo not drawn) [Compound 1-115, Ethyl 3-[2-chloro-5-(3,5-dichloro-2-pyridyl)-4-fluoro-phenyl]-5-methyl-4H-isoxazole-5-carboxylate], for which the pest or weed control at 250 g/ha in test [1], in test [2], in [3], in [4], in test [5] and in test [6] was 100% in each case. For the same compound, the pest or weed control at 250 g/ha in test [7] turned out to be 100%; in [8], 100%; in test [9], 100%; in test [10], 50%; in test [11] it was 60%; in test [12], 100%. Also, the values for the pest or weed control at 250 g/ha in test [13], in test [14] and in test [15] were 100%, 80% and 80%, respectively.

Consider `CCOC(=O)C1(C)CC(c2cc(-c3ccc(C(F)(F)F)cn3)c(F)cc2Cl)=NO1` (stereo not drawn) [Compound 1-79, Ethyl 3-[2-chloro-4-fluoro-5-[5-(trifluoromethyl)-2-pyridyl]phenyl]-5-methyl-4H-isoxazole-5-carboxylate], for which the pest or weed control at 250 g/ha in test [1], in [2], in [3], in test [4], in [5] and in test [6] was 100% each time. Moreover, the pest or weed control at 250 g/ha amounted to 100% in test [7]; 90% in test [8]; 100% in test [9]; 40% in test [10]; 60% in test [11]; 60% in test [12]. Also, the values for the pest or weed control at 250 g/ha in test [13], in test [14] and in test [15] were 50%, 80% and 100%, respectively.
